{
  "source": "patent US20240252638A1",
  "about": "“INDUCER FOR REPROGRAMMING T CELL INTO NK-LIKE CELL AND APPLICATION OF INDUCER” (ZHAOTAI IMMUGENE BIOMEDICINE (HONG KONG) LIMITED, priority 2021, published 2024)",
  "key": {"[1]": {"test_system": "primary T cells in human umbilical cord blood", "test": "Detection of phenotypes of reprogrammed T cells through flow cytometry (NKp30/NKp46 expression)", "assay_type": "cell-based", "conditions": "for expression rate of NKp30 in CD4 T cells: drug concentrations of Table 1 (DAC 0.2 μM, GSK-3484862 2 μM, Mocetinostat 0.2 μM), DMSO group approximately 7.74%; for expression rate of NKp46 in CD8 T cells: DMSO group approximately 0.26%; for expression rate of NKp30 in CD8 T cells: DMSO group approximately 12.2%; for expression of NKp46 and NKp30 in CD4 and CD8 among induced T cells compared with DMSO: induced by a single inhibitor until Day5; for expression of NKp46 and NKp30 in CD4 and CD8 among induced T cells compared with DMSO / induction of T cells to reprogram into NK-like cells: concentrations of Table 1; for induction of T cells to reprogram into NK-like cells: induced until Day5", "source_text": "In this example, umbilical cord blood mononuclear cells (UCBMCs) were separated from the umbilical cord blood through Ficoll-hypaque (polysucrose-meglumine diatrizoate) density gradient centrifugation, 4×10^7 CD3 positive UCBMCs were taken and cultured overnight with a cell density of 2×10^6 cells/mL, remaining UCBMCs were frozen, and T cells were sorted by the Pan T cell isolation kit and cultured for a period of time to obtain ≥4×10^7 CD3 positive T cells with a viability rate of ≥70% and without contamination by exogenous microorganisms such as bacteria, fungi and mycoplasmas.\n(1) T cells activated by TransAct for 36 h were taken and centrifuged at 300 g for 5 min, the T cells were resuspended with an IMDM+5% FBS+1% double antibody (a 100×penicillin-streptomycin mixed solution)+IL2 (300 U), and a T cell density was adjusted to (2−3)×10^5 cells/mL.\n(2) Groups of small molecule inhibitor drugs were added to the resuspended T cells, respectively. Half of media were changed every day, and extra new drugs were added according to volumes obtained after the media were changed. A day when the drugs were initially added was denoted as Day0, and when the drugs continued to be added until Day5, the mixtures were centrifuged at 300 g for 5 min, and the media were changed. Then, the cells continued to be cultured with an IMDM+5% FBS+1% double antibody (a 100×penicillin-streptomycin mixed solution).\n(1) 200 μL each of the T cells induced by DAC until Day6, the T cells induced by GSK-3484862 until Day 6, the T cells co-induced by DAC and Mocetinostat until Day6, the T cells co-induced by GSK-3484862 and Mocetinostat until Day6 and the untreated T cells were taken and centrifuged at 400 g for 4 min. After supernatant was discarded, 50 μL phosphate buffer (PBS) was added to resuspend the cells. Then, 0.5 μL each of CD3 PE-Cy7, CD4 APC-Cy7, CD8 FITC, NKp30 PE and NKp46 APC were added to each of the mixtures and incubated for 30 min at 4° C. in the dark, 500 μL PBS was added to dilute the antibody and centrifuged at 400 g for 4 min, supernatant was carefully discarded, and 300 μL PBS was added to resuspend the cells, transferred to a flow tube and loaded on a flow cytometer.\n(2) Data analysis was performed by BD-flowcyto analysis software, and 10000 cells were collected in each tube. The appearance of a significant increase in NKp-30 and the appearance of an NKp46-positive cell population were used as signs of successful reprogramming, and a percentage of positive T cells was calculated.\nIn addition, the T cells induced by GSK-3484862 until Day5, the T cells induced by Tazemetostat until Day5, the T cells induced by GSK126 until Day5, the T cells co-induced by Tazemetostat and GSK-3484862 until Day5, the T cells co-induced by GSK-3484862 and GSK126 until Day5 and the untreated T cells were taken and subjected to the same operations, and phenotypes of the reprogrammed T cells were identified through flow cytometry. The results are shown in FIGS. 9A, 9B, 10A, 10B, 11A, 11B, 12A, 12B, 13A, 13B, 14A and 14B."}, "[2]": {"test_system": "K562 cells (human chronic myeloid leukemia cells)", "test": "In vitro killing detection of reprogrammed T cells (luciferase)", "assay_type": "cell-based", "conditions": "effector-target ratios 16:1 to 1:4, co-cultured 24 h, vs T cells treated by DMSO", "source_text": "(1) The T cells induced by GSK-3484862, the T cells induced by DAC, the T cells induced by Mocetinostat, the T cells co-induced by GSK-3484862 and Mocetinostat, the T cells co-induced by DAC and Mocetinostat and the T cells treated by DMSO were mixed with 1×10^4 K562 cells (human chronic myeloid leukemia cells) according to different effector-target ratios (16:1, 8:1, 4:1, 2:1, 1:1, 1:2 and 1:4), respectively, and added to a 96-well cell culture plate. Three duplicate wells were set for each group, and a group with the addition of tumor cells alone was set as a positive control. After centrifugation at 250×g for 5 min, the cells were placed in a 5% CO2 incubator at 37° C. and co-cultured for 24 h.\n(2) After 24 h, 100 μL/well luciferase substrate (1×) was added to the 96-well cell culture plate, and the cells were resuspended and uniformly mixed. RLU (Relative light units) were immediately measured by a multifunctional microplate reader for 0.1 s. A killing proportion calculation formula of a quantitative killing efficiency assessment method using a luciferase is as follows:\n100%×(control well reading-experimental well reading)/control well reading (blank group (without the addition of the cells) reading may be ignored).\nIn addition, according to the same method, the T cells induced by GSK-3484862, the T cells induced by Tazemetostat, the T cells induced by GSK126, the T cells co-induced by GSK-3484862 and Tazemetostat and the T cells co-induced by GSK-3484862 and GSK-126 were separately used and the T cells treated by DMSO was used as a control to detect killing abilities of the reprogrammed T cells against K562 cells."}, "[3]": {"test_system": "reprogrammed T cells co-cultured with K562", "test": "Secretion of cytokines IFN-γ and granzyme B by reprogrammed T cells co-cultured with K562 (ELISA)", "assay_type": "cell-based, human", "conditions": "co-cultured with K562 for 48 h, supernatant", "description": "The T cells induced by DAC, the T cells induced by GSK-3484862, the T cells co-induced by DAC and Mocetinostat, the T cells co-induced by GSK-3484862 and Mocetinostat and the T cells treated by DMSO were co-cultured with human chronic myeloid leukemia cells K562 for 48 h, respectively, and expression levels of cytokines IFN-γ and a granzyme B in supernatant were detected through ELISA."}, "[4]": {"conditions": "T cells induced until Day6, drug concentrations of Table 1"}},
  "data": [
    {"smiles": "Nc1ncn([C@H]2C[C@H](O)[C@@H](CO)O2)c(=O)n1", "note": "[DAC, decitabine]", "values": [
      {"measurement": "expression rate of NKp30 in CD4 T cells", "setting": "[1]; T cells induced until Day6", "result": "approximately 83.2%"},
      {"measurement": "expression rate of NKp46 in CD8 T cells", "setting": "[1]; [4]", "result": "approximately 11.2%"},
      {"measurement": "expression rate of NKp30 in CD8 T cells", "setting": "[1]; [4]", "result": "approximately 60.5%"}
    ]},
    {"smiles": "CC[C@H](C)n1cc(C)c2c(C(=O)NCc3c(C)cc(C)[nH]c3=O)cc(-c3ccc(N4CCNCC4)nc3)cc21", "note": "[GSK126]", "values": [
      {"measurement": "in vitro killing of K562 by induced T cells", "setting": "[2]", "result": "effectively kill"},
      {"measurement": "expression of NKp46 and NKp30 in CD4 and CD8 among induced T cells compared with DMSO", "setting": "[1]", "result": "significantly expressed"},
      {"measurement": "induction of T cells to reprogram into NK-like cells", "setting": "[1]", "result": "can induce the T cells to reprogram into NK-like cells"}
    ]},
    {"smiles": "CCc1c(C#N)c(SC(C(N)=O)c2ccccc2)nc(N(C)C)c1C#N", "note": "(stereo not drawn) [GSK-3484862]", "values": [
      {"measurement": "in vitro killing of K562 by induced T cells", "setting": "[2]", "result": "effectively kill"},
      {"measurement": "IFN-γ and granzyme B secreted by induced T cells (immune effect)", "setting": "[3]", "result": "produce an immune effect"},
      {"measurement": "expression rate of NKp46 in CD4 T cells", "setting": "[1]; [4]", "result": "approximately 5.16%"},
      {"measurement": "expression rate of NKp30 in CD4 T cells", "setting": "[1]; T cells induced until Day6", "result": "approximately 81.4%"},
      {"measurement": "expression rate of NKp46 in CD8 T cells", "setting": "[1]; [4]", "result": "approximately 21.4%"},
      {"measurement": "expression rate of NKp30 in CD8 T cells", "setting": "[1]; [4]", "result": "approximately 50.8%"},
      {"measurement": "expression of NKp46 and NKp30 in CD4 and CD8 among induced T cells compared with DMSO", "setting": "[1]", "result": "significantly expressed"},
      {"measurement": "induction of T cells to reprogram into NK-like cells", "setting": "[1]", "result": "can induce the T cells to reprogram into NK-like cells"}
    ]},
    {"smiles": "Nc1ccccc1NC(=O)c1ccc(CNc2nccc(-c3cccnc3)n2)cc1", "note": "[Mocetinostat]", "values": [
      {"measurement": "in vitro killing of K562 by induced T cells", "setting": "[2]", "result": "effectively kill"}
    ]}
  ]
}
